Entries after “also recorded” stand apart in the source; their conditions may differ.
Tests used:
PI3 kinase = assay: Comparison of covalent and non-covalent inhibitors (Tables 18 and 19): prolonged PD, mechanism; details: Table 19
Procedure: “A” designates ≦10 nM; “B” designates 10-100 nM; and “C” designates 100-1000 nM

PI3Kα [1] = target: T1, PI3Kα (Homo sapiens, UniProt P42336); assay: Mass spectrometry of intact PI3Kα (Millipore, 14-602), 1 hr incubation; assay type: binding; parameters: purchased Millipore 14-602; details: 10× fold excess of compound, MALDI
Procedure: Mass Spectrometry for PI3K
Aliquots (5 μl) of the samples were diluted with 15 μl of 0.2% TFA prior to micro C4 ZipTipping directly onto the MALDI target using Sinapinic acid as the desorption matrix (10 mg/ml in 0.1% TFA:Acetonitrile 50:50).

PI3Kα [2] = target: T1, PI3Kα; assay: Trypsin digest and MS-MS analysis of compound-treated PI3Kα; assay type: binding; parameters: purchased Millipore 14-602; details: in-gel trypsin digest
Procedure: (§1) The PI3Kα protein band was then excised and subjected to an in-gel trypsin digest by reducing the protein with DTT, alkylating the thiols with iodoacetamide, and then incubating the protein gel band with trypsin overnight in a 37° C. water bath. The digest was then stopped by addition of trifluoroacetic acid, and peptides were removed from gel band by sonicating with increasing amounts of acetonitrile (0%, 30%, & 60%). Peptides were then purified using C18 ziptips, spotted on the MALDI target plate with α-cyano-4-hydroxycinnamic acid as the desorption matrix (10 mg/ml in 0.1% TFA:Acetonitrile 50:50), and analyzed in reflectron mode.
as §1, with “trifluoro acetic” for “trifluoroacetic”

PI3Kα (p110α/p85α) = target: T2, PI3Kα (p110α/p85α) (Homo sapiens, UniProt P42336); assay: HTRF assay, potency against active PI3Kα; assay type: biochemical; details: HTRF; [ATP]=50 μM, [di-C8-PIP2]=10 μM; 30 min pre-incubation; read-out: PI3Kα Inhibition
T2 construct: purchased BPS Bioscience (San Diego, Calif.) or Millipore (Billerica, Mass.)
How it was run: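 Active p110/p85α lipid kinase reactions were started with ATP and run 30-60 minutes at 25 °C, then stopped and developed with HTRF detection mix. HTRF ratio converted to % inhibition against ±enzyme controls; IC50 from log[inhibitor] vs response, variable slope.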

PI3Kγ (p120γ) = target: T3, PI3Kγ (p120γ) (Homo sapiens, UniProt P48736); assay: HTRF assay, potency against active PI3Kγ; assay type: biochemical; details: [ATP]=50 μM, [di-C8-PIP2]=10 μM, 30 min pre-incubation, read-out: PI3Kγ Inhibition
T3 construct: purchased BPS Bioscience (San Diego, Calif.) or Millipore (Billerica, Mass.)
How it was run: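 End-point competition HTRF: enzyme (p110β/p85α 0.75 nM; p120γ 2-2.5 nM) with 10 μM di-C8-PIP2 pre-incubated 30 min at 25° C with compound, then 50 μM ATP added for 30-60 min at 25° C. Stopped, detected after 1 and 18 h; IC50 from variable-slope fit.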

PI3K = PI3K HCT116 cellular assay (Western blot); assay type: cell-based; details: Homo sapiens, HCT-116, HCT116 colon cancer cells, 1 hour incubation, read-out: PI3K Inhibition
Procedure: PI3K HCT116 Cellular Assay
Selected compounds were assayed in HCT116 colon cancer cells. […] Cells were then washed with PBS, lysed and the protein lysates were then recovered and analyzed by Western blot.

T1 sequence (P42336 whole entry): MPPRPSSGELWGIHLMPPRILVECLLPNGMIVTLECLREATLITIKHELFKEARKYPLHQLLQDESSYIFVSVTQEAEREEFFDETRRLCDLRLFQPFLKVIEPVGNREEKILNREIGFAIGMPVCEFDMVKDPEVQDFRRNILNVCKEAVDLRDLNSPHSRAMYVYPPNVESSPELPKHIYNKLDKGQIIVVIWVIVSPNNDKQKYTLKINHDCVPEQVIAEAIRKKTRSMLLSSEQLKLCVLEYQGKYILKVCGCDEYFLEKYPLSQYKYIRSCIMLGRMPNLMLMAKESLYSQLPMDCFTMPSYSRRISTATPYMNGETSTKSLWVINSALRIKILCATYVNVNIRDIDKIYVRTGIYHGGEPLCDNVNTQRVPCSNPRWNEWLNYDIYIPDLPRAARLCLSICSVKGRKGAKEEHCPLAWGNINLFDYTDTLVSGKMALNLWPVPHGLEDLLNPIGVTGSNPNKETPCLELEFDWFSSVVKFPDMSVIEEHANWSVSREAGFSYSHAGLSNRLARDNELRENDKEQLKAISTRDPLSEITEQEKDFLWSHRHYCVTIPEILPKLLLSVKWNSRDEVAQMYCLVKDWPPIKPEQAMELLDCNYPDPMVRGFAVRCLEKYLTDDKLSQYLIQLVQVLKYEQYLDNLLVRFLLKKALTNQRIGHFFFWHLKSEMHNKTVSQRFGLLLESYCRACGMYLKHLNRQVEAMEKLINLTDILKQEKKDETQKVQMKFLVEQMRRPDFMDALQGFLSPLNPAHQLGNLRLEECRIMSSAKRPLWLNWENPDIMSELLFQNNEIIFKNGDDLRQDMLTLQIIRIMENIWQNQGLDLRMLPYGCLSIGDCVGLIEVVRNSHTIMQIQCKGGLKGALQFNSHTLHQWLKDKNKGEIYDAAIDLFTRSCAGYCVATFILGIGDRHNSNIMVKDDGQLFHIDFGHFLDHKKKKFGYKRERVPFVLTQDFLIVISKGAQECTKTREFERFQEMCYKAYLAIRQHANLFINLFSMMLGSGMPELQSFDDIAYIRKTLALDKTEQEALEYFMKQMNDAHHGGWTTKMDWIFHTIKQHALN
T1 sequence (P27986 whole entry partner): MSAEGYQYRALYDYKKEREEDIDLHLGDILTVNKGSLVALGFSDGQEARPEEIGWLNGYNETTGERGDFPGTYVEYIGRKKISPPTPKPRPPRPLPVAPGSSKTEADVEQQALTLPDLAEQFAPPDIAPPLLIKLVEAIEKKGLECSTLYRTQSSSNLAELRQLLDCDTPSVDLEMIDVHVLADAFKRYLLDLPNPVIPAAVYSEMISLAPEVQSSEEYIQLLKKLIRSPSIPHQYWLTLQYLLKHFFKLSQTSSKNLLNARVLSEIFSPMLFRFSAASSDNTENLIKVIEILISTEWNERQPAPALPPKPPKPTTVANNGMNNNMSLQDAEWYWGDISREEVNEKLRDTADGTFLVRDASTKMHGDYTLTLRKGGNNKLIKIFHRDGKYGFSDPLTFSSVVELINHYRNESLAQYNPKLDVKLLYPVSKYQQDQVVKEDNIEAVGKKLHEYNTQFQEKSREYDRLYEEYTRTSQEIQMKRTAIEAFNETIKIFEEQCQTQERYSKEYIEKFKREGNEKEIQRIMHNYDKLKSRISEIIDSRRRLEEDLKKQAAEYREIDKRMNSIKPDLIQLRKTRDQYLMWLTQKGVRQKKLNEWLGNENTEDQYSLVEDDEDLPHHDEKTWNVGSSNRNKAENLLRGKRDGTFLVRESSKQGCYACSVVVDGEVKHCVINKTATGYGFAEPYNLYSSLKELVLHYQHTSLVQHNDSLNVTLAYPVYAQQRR
T2 sequence (P42336 whole entry): as the sequence (P42336 whole entry) above
T2 sequence (P27986 whole entry partner): as the sequence (P27986 whole entry partner) above
T3 sequence (P48736 whole entry): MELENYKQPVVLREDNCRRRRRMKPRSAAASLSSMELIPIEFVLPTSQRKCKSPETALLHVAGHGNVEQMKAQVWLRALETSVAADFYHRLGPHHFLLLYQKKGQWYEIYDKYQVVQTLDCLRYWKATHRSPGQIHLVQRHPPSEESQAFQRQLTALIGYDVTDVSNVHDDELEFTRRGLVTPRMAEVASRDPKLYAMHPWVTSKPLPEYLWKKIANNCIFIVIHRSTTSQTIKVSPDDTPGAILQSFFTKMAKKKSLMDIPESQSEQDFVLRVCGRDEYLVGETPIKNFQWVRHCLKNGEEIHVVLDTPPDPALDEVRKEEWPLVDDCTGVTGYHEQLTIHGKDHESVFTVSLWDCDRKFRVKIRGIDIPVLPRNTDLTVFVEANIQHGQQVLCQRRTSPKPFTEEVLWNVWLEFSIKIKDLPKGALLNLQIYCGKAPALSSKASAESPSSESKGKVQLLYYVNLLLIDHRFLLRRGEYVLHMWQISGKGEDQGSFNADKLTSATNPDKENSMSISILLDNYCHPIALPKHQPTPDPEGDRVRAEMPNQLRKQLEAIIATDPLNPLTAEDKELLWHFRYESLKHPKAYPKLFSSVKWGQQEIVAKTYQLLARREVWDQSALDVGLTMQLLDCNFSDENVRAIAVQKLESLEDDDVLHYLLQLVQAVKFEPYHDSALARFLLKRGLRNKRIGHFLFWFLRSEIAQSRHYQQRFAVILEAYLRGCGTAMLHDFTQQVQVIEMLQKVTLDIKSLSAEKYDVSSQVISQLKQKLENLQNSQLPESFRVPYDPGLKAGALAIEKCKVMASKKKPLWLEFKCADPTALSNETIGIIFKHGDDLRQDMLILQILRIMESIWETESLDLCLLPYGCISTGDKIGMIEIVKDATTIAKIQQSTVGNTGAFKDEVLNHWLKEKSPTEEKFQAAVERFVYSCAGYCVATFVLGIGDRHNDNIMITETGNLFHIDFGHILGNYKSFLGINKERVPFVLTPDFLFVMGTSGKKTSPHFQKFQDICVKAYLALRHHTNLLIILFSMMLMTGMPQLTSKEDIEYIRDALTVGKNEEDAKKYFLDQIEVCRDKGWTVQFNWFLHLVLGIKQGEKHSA

With `CC(C)=CC(=O)CCC(=O)N1CCN(Cc2cc3nc(-c4cccc5[nH]ncc45)nc(N4CCOCC4)c3s2)CC1` [II-a-3, 1-(4-((2-(1H-indazol-4-yl)-4-morpholinothieno[3,2-d]pyrimidin-6-yl)methyl)piperazin-1-yl)-6-methylhept-5-ene-1,4-dione] the “Prolonged PD” value (PI3 kinase) was “Yes”, the “covalent modification of PI3Kα” value (PI3Kα [1]) was “complete modification; also recorded: covalent modification” and the “site on PI3Kα that is covalently modified” value (PI3Kα [2]) was “Cys-862; also recorded: peptide ^853NSHTIMQIQCK^863”.

With `C/C=C/C(=O)CCC(=O)N1CCN(Cc2cc3nc(-c4cccc5[nH]ncc45)nc(N4CCOCC4)c3s2)CC1` [II-a-36, (E)-1-(4-((2-(1H-indazol-4-yl)-4-morpholinothieno[3,2-d]pyrimidin-6-yl)methyl)piperazin-1-yl)hept-5-ene-1,4-dione] the IC50 (PI3Kα (p110α/p85α)) was less than 10 nM, the IC50 (PI3Kγ (p120γ)) was greater than 1000 nM and the EC50 (PI3K) was less than 20 nM.

Source: patent US20110230476A1, “PI3 KINASE INHIBITORS AND USES THEREOF” (AVILA THERAPEUTICS, INC., priority 2009, published 2011)
